Assay results from patent publication US10154974B1, “Use of abscisic acid for the prevention and treatment of malaria” (The Regents of the University of California, priority 2015, dated 2018).

System: P. falciparum
Test: P. falciparum infection of A. stephensi fed a supplemented infected bloodmeal
Format: in vivo
Procedure: For P. falciparum infections A. stephensi were fed on a 1:1 ratio of P. falciparum-infected RBCs containing a treatment or diluent control and provided in a Hemotek Insect Feeding System (Discovery Workshops). ABA was eluted in 100% ethanol and stored at −20 C for up to 6 months. ABA stock was diluted with PBS and added into blood immediately before feeding for final concentrations of 10 nM and 100 nM. For L-NAME feeds mosquitoes were maintained on sugar cubes and water pads containing 1 mg/mL L-NAME for 72 hours before the feed and throughout the course of infection. Infection prevalence data were analyzed by Fisher's Exact Test. Oocyst intensities were analyzed by Mann-Whitney test.

Q: How did the “P. falciparum infection prevalence” value (1 mg/ml L-NAME added to 100 nM ABA-supplemented infected bloodmeal) turn out when `COC(=O)[C@@H](N)CCCNC(=N)N[N+](=O)[O-]` [L-NAME, Nω-Nitro-L-arginine methyl ester, reference compound] was run?
A: rescued P. falciparum infection prevalence back to control levels

Q: And the P. falciparum infection (1 mg/ml L-NAME alone)?
A: no effect
